Source: patent US20250160329A1, “AGROCHEMICAL ADJUVANTS” (Croda International Pic, priority 2022, published 2025)

Tested on: Botrytis cinerea (ATCC 90479)
Assay: Botrytis cinerea hyphal growth inhibition on PDA agar (colony diameter), adjuvant with or without pyraclostrobin
Assay type: cell-based
Conditions: for Fold Change in Growth Inhibition: 48 h, 22° C., relative to pyraclostrobin alone
Text: As a measure of the adjuvant activity in relation to the activity of the fungicide alone (e.g. pyraclostrobin) to B. cinerea a value of percent inhibition (adjuvant and fungicide) divided by percent inhibition (fungicide) can be defined, with higher values desired. A value of 1 would therefore represent equal activity of the adjuvant/fungicide combination to the fungicide alone, whereas a value above 1 would represent higher activity with the adjuvant/fungicide combination than the fungicide alone. The actives of the present invention may have a value greater than 1. Preferably greater than 1.5, most preferably greater than 2.
Percent Inhibition—The percent inhibition will be understood to represent the amount the fungicide and/or adjuvant that inhibits the visible growth of the microorganism after 48 hours incubation at 22° C. relative to vehicle treated controls. This is calculated using the following formula:
[formula] • where: • ØC=diameter of the colony grown on agar supplemented with vehicle (i.e. vehicle treated control), and • ØT=diameter of the colony grown on agar supplemented with fungicide and/or adjuvant formulated in an appropriate vehicle (i.e. solvent such as water C2H5OH, CH3OH, CH3CN, DMSO).
Fold Change—The fold change is a measure of the adjuvant/fungicide combination in inhibiting a microorganism compared to the fungicide alone. This indicates how the adjuvant performs relative to the fungicide alone. This is calculated using the following formula:
INHAF/INHF • where: • INHAF=percent inhibition of fungal growth when treated with fungicide and adjuvant, and • INHF=percent inhibition of fungal growth when treated with fungicide alone.
Botrytis cinerea (ATCC 90479) was cultured on Difco Potato Dextrose Agar (PDA) for 7 days with diurnal UV cycles (12 h UV light and 12 h dark). Spores were harvested in a buffered, sterile saline solution (w/v: 0.9% NaCl with 1% Tween 80) and counted using a haemocytometer. The spore suspension was adjusted to a final concentration of 8.5×10^6 spores/mL to create a standardised inoculum.
To prepare hyphal fragments for adjuvant testing, 8.5×10^4 spores were used to inoculate 10 mL of Difco Potato Dextrose Broth in a 150×25 mm tube. The tube was incubated at 220 RPM, 22° C. for 48 hours.
To create hyphal fragments from the culture, the culture was transferred to a 50 mL plastic conical tube containing approximately 20 sterile 5 mm diameter glass beads and vortexed for 5 min. […]
Fungicides and adjuvants were dissolved in methanol and added to molten PDA (−50° C.) and then the agar was distributed in the wells of 12 well multiwell plates (1 mL/well). […] The plates were incubated at 22° C. for 48 hours and then the colony diameter was measured using a digital caliper. […]

For `O=C1N/C(=C\c2ccccc2)C(=O)N2CCCCC12` (stereo not shown) [DKP (Ia), cyclo(-dhPhe-Pip) diketopiperazine], the “Fold Change in Growth Inhibition” value (adjuvant 32 μg/mL + pyraclostrobin (Pyra) 0.0156 μg/mL) was 3.18, the “Fold Change in Growth Inhibition” value (adjuvant 32 μg/mL + pyraclostrobin (Pyra) 0.0313 μg/mL) was 1.36 and the “Fold Change in Growth Inhibition” value (adjuvant 32 μg/mL + pyraclostrobin (Pyra) 0.0625 μg/mL) was 1.76. For the same compound, the “fungicidal activity against B. cinerea (adjuvant alone)” value (adjuvant alone at […] (so in the source), no fungicide) was “no fungicidal activity”.
